Laboratory results taken from PubChem BioAssay AID743231 (The Scripps Research Institute Molecular Screening Center, 2013).
Calls of active or inactive are those of the source. No cut-off is given here; in the data, nearly all actives have IC50 up to about 7.9 µM.

What follows are compounds tested against Trace amine-associated receptor 1 (Homo sapiens) (UniProt Q96RJ0) (assay: agonist-induced loss of TAAR1 response, titration – cell-based, fluorescence, late stage, counter-screen for TAAR1 agonist project, dose response (AID 743231)). Conditions: hTAAR1 cells, desensitization of agonist response.
Sequence of Trace amine-associated receptor 1 (Homo sapiens) (Q96RJ0 whole entry, looked up): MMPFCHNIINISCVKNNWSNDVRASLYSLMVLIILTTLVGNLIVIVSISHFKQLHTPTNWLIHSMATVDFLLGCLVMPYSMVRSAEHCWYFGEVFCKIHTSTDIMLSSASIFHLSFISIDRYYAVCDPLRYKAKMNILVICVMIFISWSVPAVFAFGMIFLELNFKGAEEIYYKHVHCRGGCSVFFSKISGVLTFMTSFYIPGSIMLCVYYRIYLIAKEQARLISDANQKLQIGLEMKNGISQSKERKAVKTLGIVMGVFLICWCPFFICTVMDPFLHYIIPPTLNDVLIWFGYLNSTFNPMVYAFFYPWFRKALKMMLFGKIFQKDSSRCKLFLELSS

Compared with CC1(C)CCCN(C(=O)c2coc(=O)c(Br)c2)C1, Cc1cc(C)n(C(CC(=O)N2CCc3ccccc3C2)C(=O)O)n1 (stereo not given) is 2.1-fold lower in IC50: 2.55 µM for the first, 1.22 µM for the second. The second is the more potent here.

First: OCCNc1nc(Nc2cccc(O)c2)nc2ccccc12
Second: OCCNc1nc(Nc2ccc(O)cc2)nc2ccccc12
The IC50 of the first is 7.6-fold lower: 0.244 µM for the first, 1.86 µM for the second. The first is the more potent here.

NC(N)=NN=Cc1c(Cl)cccc1Cl and c1ccc2c3c([nH]c2c1)CCNC3 are within 1.5-fold of each other in IC50: 0.77 µM for the first, 1.12 µM for the second.

Going from O=C(CCCCl)N1CCc2[nH]c3ccccc3c2C1 to Cc1ccc(NC(=O)CCN2CCc3ccccc3C2)cc1, the IC50 rises from 1.09 µM to 8.27 µM (7.6-fold). The first is the more potent here.

Compared with COc1cc(C(=O)CCN2CCC(c3ccccc3)C2)cc(OC)c1OC (stereo not given), O=C(CCN1CCC(c2ccccc2)C1)c1cccs1 (stereo not given) is 1.8-fold lower in IC50: 1.52 µM for the first, 0.835 µM for the second. The second is the more potent here.

Going from Nc1nc(Nc2cccc(F)c2)nc2ccccc12 to Nc1nc(Nc2ccccc2)nc2ccccc12, the IC50 falls from 1.28 µM to 0.642 µM (2-fold).

First: c1ccc(CCn2nnnc2C(c2cccs2)N2CCN(Cc3ccc4c(c3)OCO4)CC2)cc1 (stereo not given)
Second: O=C(CCN1CCC(c2ccccc2)C1)c1ccc2c(c1)OCCO2 (stereo not given)
The IC50 of the first is 1.6-fold higher: 1.34 µM for the first, 0.856 µM for the second. The second is the more potent here.

First: O=C(C(=O)N1CCc2ccccc2C1)c1cn(CC(=O)N2CCCCC2)c2ccccc12
Second: O=C(CCN1CCc2ccccc2CC1)c1ccc2c(c1)OCCO2
The IC50 of the first is 2.7-fold higher: 2.69 µM for the first, 1.01 µM for the second. The second is the more potent here.

CC(=NCCc1ccccc1)C1CCOC1=O (stereo not given) and O=C(Nc1ccccc1)Nc1ccncc1 are within 1.5-fold of each other in IC50: 2.84 µM for the first, 2.74 µM for the second.

CCOC(=O)C(NC(=O)CC)(N1CCc2ccccc2C1)C(F)(F)F (stereo not given) and CCOC(=O)C(NC(C)=O)(N1CCc2ccccc2C1)C(F)(F)F (stereo not given) are within 1.5-fold of each other in IC50: 0.611 µM for the first, 0.639 µM for the second.

Going from c1ccc2c(c1)CCN(c1nc3cc4c(cc3s1)OCO4)C2 to Cc1cc(N(C)C)nc(Nc2ccccc2)n1, the IC50 falls from 2.25 µM to 0.21 µM (11-fold).

First: O=C(Nc1ccncc1)Nc1ccc(F)cc1
Second: O=C(Nc1cccnc1)Nc1cccc(F)c1
The IC50 of the first is 2.7-fold lower: 2.43 µM for the first, 6.52 µM for the second.

O=C(Nc1cccc2ccccc12)N1CCc2ccccc2C1 was tested, and the IC50 was > 29.9 µM (inactive).
